# In patent publication US20260232767A1, “INTERLEUKIN-23 RECEPTOR ANTAGONIST PEPTIDES FOR USE IN THE TREATMENT OF PSORIASIS” (Janssen Pharmaceutica NV, priority 2023, published 2026):
# System: subjects with moderate-to-severe plaque psoriasis
# Assay: PSSD symptom and sign scores, Example 2
# Format: in vivo, human
# Conditions: for Change from Baseline in PSSD Symptom Score at Week 52, LSMean: MMRM model; for Subjects Achieving PSSD Sign Score 0 at Week 52: Subjects w/Baseline PSSD Sign Score ≥1 (Table 26, second block); for Subjects achieving PSSD Sign Score = 0 at Week 52: subjects with Baseline PSSD Sign Score ≥1; for Subjects achieving PSSD Symptom Score = 0 at Week 52: subjects with Baseline PSSD Symptom Score ≥1; for Change from Baseline in PSSD Sign Score, LSMean / Change from Baseline in PSSD Symptom Score, LSMean: MMRM
# [1] = Placebo → 100 mg QD, crossed over at or after Week 16
smiles,measurement,setting,value
"CC(=O)NCCCC[C@@H]1NC(=O)[C@H](Cc2c[nH]c3c(C)cccc23)NC(=O)[C@H]([C@@H](C)O)NC(=O)[C@H](CC(N)=O)NC(=O)[C@@H](NC(C)=O)C(C)(C)SSC(C)(C)[C@@H](C(=O)N[C@@H](Cc2ccc(OCCN)cc2)C(=O)N[C@@H](Cc2ccc3ccccc3c2)C(=O)NC2(C(=O)N[C@@H](CCC(=O)O)C(=O)N[C@@H](CC(N)=O)C(=O)N[C@@H](Cc3cccnc3)C(=O)N(C)CC(N)=O)CCOCC2)NC1=O [IL-23 receptor antagonist peptide, Ac-[Pen]*-N-T-[W(7-Me)]-[Lys(Ac)]-[Pen]*-Phe[4-(2-aminoethoxy)]-[2-Nal]-[THP]-E-N-[3-Pal]-Sarc-NH2 (*[Pen]-[Pen]* formdisulfidebond)]","Change from Baseline in PSSD Sign Score at Week 52, Median",25 mg BID,−38.5
same,"Change from Baseline in PSSD Symptom Score at Week 52, Median",25 mg BID,−27.0
same,"Change from Baseline in PSSD Symptom Score at Week 52, LSMean",25 mg BID,−31.4
same,Subjects Achieving PSSD Sign Score 0 at Week 52,25 mg BID,5 (12.2%)
same,Subjects achieving PSSD Sign Score = 0 at Week 52,25 mg BID,5 (12.2%)
same,Subjects achieving PSSD Symptom Score = 0 at Week 52,25 mg BID,7 (17.1%)
same,"Change from Baseline in PSSD Sign Score at Week 52, Median",25 mg QD,−32.5
same,"Change from Baseline in PSSD Symptom Score at Week 52, Median",25 mg QD,−35.0
same,"Change from Baseline in PSSD Symptom Score at Week 52, LSMean",25 mg QD,−22.3
same,Subjects Achieving PSSD Sign Score 0 at Week 52,25 mg QD,7 (16.3%)
same,Subjects achieving PSSD Sign Score = 0 at Week 52,25 mg QD,7 (16.3%)
same,Subjects achieving PSSD Symptom Score = 0 at Week 52,25 mg QD,8 (18.6%)
same,"Change from Baseline in PSSD Sign Score at Week 52, Median",50 mg QD,−45.0
same,"Change from Baseline in PSSD Symptom Score at Week 52, Median",50 mg QD,−34.0
same,"Change from Baseline in PSSD Symptom Score at Week 52, LSMean",50 mg QD,−33.0
same,Subjects achieving PSSD Sign Score = 0 at Week 52,50 mg QD,5 (11.6%)
same,Subjects achieving PSSD Symptom Score = 0 at Week 52,50 mg QD,9 (21.4%)
same,"Change from Baseline in PSSD Sign Score at Week 52, Median",100 mg BID,−55.0
same,"Change from Baseline in PSSD Symptom Score at Week 52, Median",100 mg BID,−53.0
same,"Change from Baseline in PSSD Symptom Score at Week 52, LSMean",100 mg BID,−44.0
same,Subjects Achieving PSSD Sign Score 0 at Week 52,100 mg BID,7 (16.7%)
same,Subjects achieving PSSD Sign Score = 0 at Week 52,100 mg BID,7 (16.7%)
same,"Change from Baseline in PSSD Sign Score at Week 52, Median",100 mg QD,−43.0
same,"Change from Baseline in PSSD Symptom Score at Week 52, Median",100 mg QD,−28.0
same,"Change from Baseline in PSSD Symptom Score at Week 52, LSMean",100 mg QD,−36.5
same,Subjects Achieving PSSD Sign Score 0 at Week 52,100 mg QD,6 (14.0%)
same,"Change from Baseline in PSSD Sign Score at Week 52, Median",[1],−48.5
same,"Change from Baseline in PSSD Symptom Score at Week 52, Median",[1],−30.0
same,"Change from Baseline in PSSD Symptom Score at Week 52, LSMean",[1],−32.4
same,Subjects achieving PSSD Sign Score = 0 at Week 52,[1],(22.9%)
same,Subjects achieving PSSD Symptom Score = 0 at Week 52,[1],(34.3%)
same,"Change from Baseline in PSSD Sign Score, Mean","Week 1, 25 mg BID",−11.3
same,"Change from Baseline in PSSD Sign Score, Median","Week 1, 25 mg BID",−11.0
same,"Change from Baseline in PSSD Symptom Score, Mean","Week 1, 25 mg BID",−7.6
same,"Change from Baseline in PSSD Symptom Score, Median","Week 1, 25 mg BID",−8.0
same,"Change from Baseline in PSSD Sign Score, LSMean","Week 1, 25 mg BID",−11.4
same,"Change from Baseline in PSSD Symptom Score, LSMean","Week 1, 25 mg BID",−7.8
same,"Change from Baseline in PSSD Sign Score, Mean","Week 1, 25 mg QD",−11.9
same,"Change from Baseline in PSSD Sign Score, Median","Week 1, 25 mg QD",−10.5
same,"Change from Baseline in PSSD Symptom Score, Mean","Week 1, 25 mg QD",−12.9
same,"Change from Baseline in PSSD Symptom Score, Median","Week 1, 25 mg QD",−12.0
same,"Change from Baseline in PSSD Sign Score, LSMean","Week 1, 25 mg QD",−10.9
same,"Change from Baseline in PSSD Symptom Score, LSMean","Week 1, 25 mg QD",−11.1
same,"Change from Baseline in PSSD Sign Score, Mean","Week 1, 50 mg QD",−13.3
same,"Change from Baseline in PSSD Sign Score, Median","Week 1, 50 mg QD",−11.0
same,"Change from Baseline in PSSD Symptom Score, Mean","Week 1, 50 mg QD",−9.6
same,"Change from Baseline in PSSD Symptom Score, Median","Week 1, 50 mg QD",−12.0
same,"Change from Baseline in PSSD Sign Score, LSMean","Week 1, 50 mg QD",−13.3
same,"Change from Baseline in PSSD Symptom Score, LSMean","Week 1, 50 mg QD",−9.1
same,"Change from Baseline in PSSD Sign Score, Mean","Week 1, 100 mg BID",−15.9
same,"Change from Baseline in PSSD Sign Score, Median","Week 1, 100 mg BID",−16.0
same,"Change from Baseline in PSSD Symptom Score, Mean","Week 1, 100 mg BID",−12.5
same,"Change from Baseline in PSSD Symptom Score, Median","Week 1, 100 mg BID",−8.0
same,Subjects Achieving PSSD Symptom Score 0 (%),"Week 1, 100 mg BID, Baseline Symptom Score ≥1, N=42",(2.4%)
same,"Change from Baseline in PSSD Sign Score, LSMean","Week 1, 100 mg BID",−15.6
same,"Change from Baseline in PSSD Symptom Score, LSMean","Week 1, 100 mg BID",−11.5
same,"Change from Baseline in PSSD Sign Score, Mean","Week 1, 100 mg QD",−12.0
same,"Change from Baseline in PSSD Sign Score, Median","Week 1, 100 mg QD",−9.0
same,"Change from Baseline in PSSD Symptom Score, Mean","Week 1, 100 mg QD",−6.2
same,"Change from Baseline in PSSD Symptom Score, Median","Week 1, 100 mg QD",−7.0
same,"Change from Baseline in PSSD Sign Score, LSMean","Week 1, 100 mg QD",−12.4
same,"Change from Baseline in PSSD Symptom Score, LSMean","Week 1, 100 mg QD",−8.4
same,"Change from Baseline in PSSD Sign Score, Mean","Week 2, 25 mg BID",−20.3
same,"Change from Baseline in PSSD Sign Score, Median","Week 2, 25 mg BID",−15.0
same,"Change from Baseline in PSSD Symptom Score, Mean","Week 2, 25 mg BID",−16.0
same,"Change from Baseline in PSSD Symptom Score, Median","Week 2, 25 mg BID",−12.0
same,"Change from Baseline in PSSD Sign Score, LSMean","Week 2, 25 mg BID",−20.7
same,"Change from Baseline in PSSD Symptom Score, LSMean","Week 2, 25 mg BID",−16.2
same,"Change from Baseline in PSSD Sign Score, Mean","Week 2, 25 mg QD",−17.6
same,"Change from Baseline in PSSD Sign Score, Median","Week 2, 25 mg QD",−17.5
same,"Change from Baseline in PSSD Symptom Score, Mean","Week 2, 25 mg QD",−18.1
same,"Change from Baseline in PSSD Symptom Score, Median","Week 2, 25 mg QD",−17.0
same,"Change from Baseline in PSSD Sign Score, LSMean","Week 2, 25 mg QD",−15.7
same,"Change from Baseline in PSSD Symptom Score, LSMean","Week 2, 25 mg QD",−15.8
same,"Change from Baseline in PSSD Sign Score, Mean","Week 2, 50 mg QD",−22.7
same,"Change from Baseline in PSSD Sign Score, Median","Week 2, 50 mg QD",−22.0
same,"Change from Baseline in PSSD Symptom Score, Mean","Week 2, 50 mg QD",−17.3
same,"Change from Baseline in PSSD Symptom Score, Median","Week 2, 50 mg QD",−16.0
same,Subjects Achieving PSSD Symptom Score 0 (%),"Week 2, 50 mg QD, Baseline Symptom Score ≥1, N=42",(2.4%)
same,"Change from Baseline in PSSD Sign Score, LSMean","Week 2, 50 mg QD",−23.1
same,"Change from Baseline in PSSD Symptom Score, LSMean","Week 2, 50 mg QD",−17.2
same,"Change from Baseline in PSSD Sign Score, Mean","Week 2, 100 mg BID",−24.7
same,"Change from Baseline in PSSD Sign Score, Median","Week 2, 100 mg BID",−28.0
same,"Change from Baseline in PSSD Symptom Score, Mean","Week 2, 100 mg BID",−18.4
same,"Change from Baseline in PSSD Symptom Score, Median","Week 2, 100 mg BID",−14.0
same,"Change from Baseline in PSSD Sign Score, LSMean","Week 2, 100 mg BID",−24.3
same,"Change from Baseline in PSSD Symptom Score, LSMean","Week 2, 100 mg BID",−17.1
same,"Change from Baseline in PSSD Sign Score, Mean","Week 2, 100 mg QD",−22.6
same,"Change from Baseline in PSSD Sign Score, Median","Week 2, 100 mg QD",−20.0
same,"Change from Baseline in PSSD Symptom Score, Mean","Week 2, 100 mg QD",−15.2
same,"Change from Baseline in PSSD Symptom Score, Median","Week 2, 100 mg QD",−14.0
same,"Change from Baseline in PSSD Sign Score, LSMean","Week 2, 100 mg QD",−24.3
same,"Change from Baseline in PSSD Symptom Score, LSMean","Week 2, 100 mg QD",−18.4
same,"Change from Baseline in PSSD Sign Score, Mean","Week 4, 25 mg BID",−26.9
same,"Change from Baseline in PSSD Sign Score, Median","Week 4, 25 mg BID",−25.0
same,"Change from Baseline in PSSD Symptom Score, Mean","Week 4, 25 mg BID",−22.8
same,"Change from Baseline in PSSD Symptom Score, Median","Week 4, 25 mg BID",−20.0
same,Subjects Achieving PSSD Symptom Score 0 (%),"Week 4, 25 mg BID, Baseline Symptom Score ≥1, N=41",(4.9%)
same,"Change from Baseline in PSSD Sign Score, LSMean","Week 4, 25 mg BID",−27.5
same,"Change from Baseline in PSSD Symptom Score, LSMean","Week 4, 25 mg BID",−23.1
same,"Change from Baseline in PSSD Sign Score, Mean","Week 4, 25 mg QD",−24.5
same,"Change from Baseline in PSSD Sign Score, Median","Week 4, 25 mg QD",−29.5
same,"Change from Baseline in PSSD Symptom Score, Mean","Week 4, 25 mg QD",−23.6
same,"Change from Baseline in PSSD Symptom Score, Median","Week 4, 25 mg QD",−23.0
same,Subjects Achieving PSSD Symptom Score 0 (%),"Week 4, 25 mg QD, Baseline Symptom Score ≥1, N=43",(2.3%)
same,"Change from Baseline in PSSD Sign Score, LSMean","Week 4, 25 mg QD",−21.7
same,"Change from Baseline in PSSD Symptom Score, LSMean","Week 4, 25 mg QD",−19.9
same,"Change from Baseline in PSSD Sign Score, Mean","Week 4, 50 mg QD",−27.4
same,"Change from Baseline in PSSD Sign Score, Median","Week 4, 50 mg QD",−29.0
